According to PubChem BioAssay (NCI):
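Assay format: 96-well plates, 48-hour exposure. Abbreviation: GI50, concentration required for 50% inhibition of growth. TGI is the concentration that stops growth completely.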

Tests used:
Assay in all cases: NCI-60 cell line screen, 48 h
[1] = tested on: LOX IMVI melanoma
[2] = tested on: HCT-116 colon
[3] = tested on: OVCAR-5 ovarian
[4] = tested on: RPMI-8226 leukemia
[5] = tested on: COLO 205 colon
[6] = tested on: MOLT-4 leukemia
[7] = tested on: SK-MEL-5 melanoma
[8] = tested on: NCI-H226 lung
[9] = tested on: NCI-H460 lung
[10] = tested on: UACC-257 melanoma
[11] = tested on: HS 578T breast
[12] = tested on: M14 melanoma
[13] = tested on: T-47D breast
[14] = tested on: NCI-H23 lung
[15] = tested on: EKVX NSCLC
[16] = tested on: TK-10 renal
[17] = tested on: SF-268 CNS
[18] = tested on: K-562 leukemia
[19] = tested on: HOP-92 NSCLC
[20] = tested on: UACC-62 melanoma
[21] = tested on: UO-31 renal
[22] = tested on: MALME-3M melanoma
[23] = tested on: HCC-2998 colon
[24] = tested on: NCI/ADR-RES ovarian
[25] = tested on: SF-539 CNS
[26] = tested on: BT-549 breast
[27] = tested on: CCRF-CEM leukemia
[28] = tested on: NCI-H522 lung
[29] = tested on: OVCAR-3 ovarian
[30] = tested on: MDA-MB-231 breast
[31] = tested on: SNB-75 CNS
[32] = tested on: SNB-19 CNS
[33] = tested on: SR leukemia
[34] = tested on: HOP-62 NSCLC
[35] = tested on: HCT-15 colon
[36] = tested on: DU-145 prostate
[37] = tested on: MCF7 breast
[38] = tested on: MDA-MB-435
[39] = tested on: SK-MEL-28 melanoma
[40] = tested on: RXF 393 renal
[41] = tested on: KM12 colon
[42] = tested on: OVCAR-8 ovarian
[43] = tested on: PC-3 prostate
[44] = tested on: A549 NSCLC
[45] = tested on: ACHN renal
[46] = tested on: SF-295 CNS
[47] = tested on: SN12C renal
[48] = tested on: A498 renal
[49] = tested on: IGROV1 ovarian
[50] = tested on: HT29 colon
[51] = tested on: SK-OV-3 ovarian
[52] = tested on: HL-60(TB) leukemia
[53] = tested on: U251 CNS
[54] = tested on: OVCAR-4 ovarian
[55] = tested on: 786-0 renal
[56] = tested on: SW-620 colon
[57] = tested on: CAKI-1 renal

## CN(c1ccc(Cl)c(Cl)c1)c1cnc2cc(N)cc(N)c2n1
[1]
  GI50: 1.84 µM
  TGI: 3.74 µM
[2]
  GI50: 2.31 µM
  TGI: 4.9 µM
[3]
  GI50: 15.7 µM
  TGI: 30.5 µM
[4]
  GI50: 3.65 µM
  TGI: 26 µM
[5]
  GI50: 1.79 µM
  TGI: 3.47 µM
[6]
  GI50: 3.81 µM
  TGI: > 100 µM
[7]
  GI50: 1.96 µM
  TGI: 3.71 µM
[8]
  GI50: 15.1 µM
  TGI: 33.9 µM
[9]
  GI50: 14.2 µM
  TGI: 52.1 µM
[10]
  GI50: 1.81 µM
  TGI: 3.59 µM
[11]
  GI50: 2.66 µM
  TGI: 7.36 µM
[12]
  GI50: 1.91 µM
  TGI: 3.44 µM
[13]
  GI50: 2.45 µM
  TGI: 8.95 µM
[14]
  GI50: 2.11 µM
  TGI: 4.47 µM
[15]
  GI50: 3.63 µM
  TGI: 11.2 µM
[16]
  GI50: 13.2 µM
  TGI: 27.7 µM
[17]
  GI50: 4.62 µM
  TGI: 25 µM
[18]
  GI50: 4.21 µM
  TGI: > 100 µM
[19]
  GI50: 13.1 µM
  TGI: 33.4 µM
[20]
  GI50: 2.25 µM
  TGI: 4.43 µM
[21]
  GI50: 3.4 µM
  TGI: 16.6 µM
[22]
  GI50: 2.19 µM
  TGI: 4.28 µM
[23]
  GI50: 11.5 µM
  TGI: 24.5 µM
[24]
  GI50: 10.6 µM
  TGI: 30.1 µM
[25]
  GI50: 4.71 µM
  TGI: 17 µM
[26]
  GI50: 2.73 µM
  TGI: 6.56 µM
[27]
  GI50: 2.64 µM
  TGI: 8.7 µM
[28]
  GI50: 2.58 µM
  TGI: 6.5 µM
[29]
  GI50: 2.36 µM
  TGI: 10.9 µM
[30]
  GI50: 3.37 µM
  TGI: 15.4 µM
[31]
  GI50: 3.34 µM
  TGI: 9.57 µM
[32]
  GI50: 3.75 µM
  TGI: 15.1 µM
[33]
  GI50: 3.77 µM
  TGI: > 100 µM
[34]
  GI50: 2.91 µM
  TGI: 8.07 µM
[35]
  GI50: 4.57 µM
  TGI: 20.1 µM
[36]
  GI50: 2.74 µM
  TGI: 7.34 µM
[37]
  GI50: 2.03 µM
  TGI: 4.93 µM
[38]
  GI50: 1.91 µM
  TGI: 3.99 µM
[39]
  GI50: 2.98 µM
  TGI: 8.06 µM
[40]
  GI50: 4.19 µM
  TGI: 40.3 µM
[41]
  GI50: 7.2 µM
  TGI: 25.8 µM
[42]
  GI50: 3.48 µM
  TGI: 15.4 µM
[43]
  GI50: 4.15 µM
  TGI: 18.1 µM
[44]
  GI50: 13.7 µM
  TGI: 45.4 µM
[45]
  GI50: 4.64 µM
  TGI: 16 µM
[46]
  GI50: 3.58 µM
  TGI: 12.4 µM
[47]
  GI50: 1.75 µM
  TGI: 3.27 µM
[48]
  GI50: 17.6 µM
  TGI: 32.3 µM
[49]
  GI50: 5.27 µM
  TGI: 60.2 µM
[50]
  GI50: 4.07 µM
  TGI: 22 µM
[51]
  GI50: 13.6 µM
  TGI: 37.8 µM
[52]
  GI50: 2.26 µM
  TGI: 7.56 µM
[53]
  GI50: 2.62 µM
  TGI: 6.86 µM
[54]
  GI50: 1.71 µM
  TGI: 3.32 µM
[55]
  GI50: 12.7 µM
  TGI: 26 µM
[56]
  GI50: 2.04 µM
  TGI: 4.34 µM
[57]
  GI50: 4.08 µM
  TGI: 17.6 µM
